Laboratory results as given in PubChem BioAssay (NCI).
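Values below derive from 48-hour exposures of cells grown in 96-well plates, with endpoints linearly interpolated between the two concentrations bracketing the appropriate inhibition level. Here, GI50 denotes the concentration required for 50% inhibition of growth. TGI: total growth inhibition.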

How the values were obtained:
Experiment in all cases: DTP human tumour cell line panel, 48 h
786-0 renal = system: 786-0 renal
A498 renal = system: A498 renal
A549 NSCLC = system: A549 NSCLC
ACHN renal = system: ACHN renal
BT-549 breast = system: BT-549 breast
CAKI-1 renal = system: CAKI-1 renal
CCRF-CEM leukemia = system: CCRF-CEM leukemia
COLO 205 colon = system: COLO 205 colon
DU-145 prostate = system: DU-145 prostate
EKVX NSCLC = system: EKVX NSCLC
HCC-2998 colon = system: HCC-2998 colon
HCT-116 colon = system: HCT-116 colon
HCT-15 colon = system: HCT-15 colon
HOP-62 NSCLC = system: HOP-62 NSCLC
HOP-92 NSCLC = system: HOP-92 NSCLC
HS 578T breast = system: HS 578T breast
HT29 colon = system: HT29 colon
IGROV1 ovarian = system: IGROV1 ovarian
K-562 leukemia = system: K-562 leukemia
KM12 colon = system: KM12 colon
LOX IMVI melanoma = system: LOX IMVI melanoma
M14 melanoma = system: M14 melanoma
MALME-3M melanoma = system: MALME-3M melanoma
MCF7 breast = system: MCF7 breast
MDA-MB-435 = system: MDA-MB-435
MOLT-4 leukemia = system: MOLT-4 leukemia
NCI-H226 lung = system: NCI-H226 lung
NCI-H23 lung = system: NCI-H23 lung
NCI-H460 lung = system: NCI-H460 lung
NCI-H522 lung = system: NCI-H522 lung
NCI/ADR-RES ovarian = system: NCI/ADR-RES ovarian
OVCAR-4 ovarian = system: OVCAR-4 ovarian
OVCAR-5 ovarian = system: OVCAR-5 ovarian
PC-3 prostate = system: PC-3 prostate
RPMI-8226 leukemia = system: RPMI-8226 leukemia
RXF 393 renal = system: RXF 393 renal
SF-268 CNS = system: SF-268 CNS
SF-295 CNS = system: SF-295 CNS
SF-539 CNS = system: SF-539 CNS
SK-MEL-5 melanoma = system: SK-MEL-5 melanoma
SK-OV-3 ovarian = system: SK-OV-3 ovarian
SN12C renal = system: SN12C renal
SNB-19 CNS = system: SNB-19 CNS
SNB-75 CNS = system: SNB-75 CNS
SW-620 colon = system: SW-620 colon
TK-10 renal = system: TK-10 renal
U251 CNS = system: U251 CNS
UACC-257 melanoma = system: UACC-257 melanoma
UACC-62 melanoma = system: UACC-62 melanoma
UO-31 renal = system: UO-31 renal

## N#Cc1c(NC(=O)c2ccc(F)c(Cl)c2)sc2c1CCC(=O)C2
786-0 renal
  GI50: 389 nM
  TGI: 5780 nM
A498 renal
  GI50: 2400 nM
  TGI: 6440 nM
A549 NSCLC
  GI50: 2640 nM
  TGI: > 29200 nM
ACHN renal
  GI50: 349 nM
  TGI: 1080 nM
BT-549 breast
  GI50: 223 nM
  TGI: 696 nM
CAKI-1 renal
  GI50: 302 nM
  TGI: 1130 nM
CCRF-CEM leukemia
  GI50: 216 nM
  TGI: > 24400 nM
COLO 205 colon
  GI50: 423 nM
  TGI: 1380 nM
DU-145 prostate
  GI50: 4040 nM
  TGI: > 100000 nM
EKVX NSCLC
  GI50: 1060 nM
  TGI: 4800 nM
HCC-2998 colon
  GI50: 1320 nM
  TGI: 3330 nM
HCT-116 colon
  GI50: 233 nM
  TGI: 1110 nM
HCT-15 colon
  GI50: 368 nM
  TGI: 2060 nM
HOP-62 NSCLC
  GI50: 2510 nM
  TGI: > 28300 nM
HOP-92 NSCLC
  GI50: 231 nM
  TGI: 724 nM
HS 578T breast
  GI50: 523 nM
  TGI: 3760 nM
HT29 colon
  GI50: 347 nM
  TGI: 1310 nM
IGROV1 ovarian
  GI50: 592 nM
  TGI: 2380 nM
K-562 leukemia
  GI50: 301 nM
  TGI: > 100000 nM
KM12 colon
  GI50: 419 nM
  TGI: 1930 nM
LOX IMVI melanoma
  GI50: 404 nM
  TGI: 4440 nM
M14 melanoma
  GI50: 365 nM
  TGI: 1750 nM
MALME-3M melanoma
  GI50: 485 nM
  TGI: 1690 nM
MCF7 breast
  GI50: 337 nM
  TGI: 15000 nM
MDA-MB-435
  GI50: 436 nM
  TGI: 2400 nM
MOLT-4 leukemia
  GI50: 332 nM
  TGI: > 26000 nM
NCI-H226 lung
  GI50: 2040 nM
  TGI: 6250 nM
NCI-H23 lung
  GI50: 371 nM
  TGI: 2080 nM
NCI-H460 lung
  GI50: 1940 nM
  TGI: > 33300 nM
NCI-H522 lung
  GI50: 200 nM
  TGI: 671 nM
NCI/ADR-RES ovarian
  GI50: 449 nM
  TGI: > 100000 nM
OVCAR-4 ovarian
  GI50: 578 nM
  TGI: 2000 nM
OVCAR-5 ovarian
  GI50: 728 nM
  TGI: 3020 nM
PC-3 prostate
  GI50: 237 nM
  TGI: 1350 nM
RPMI-8226 leukemia
  GI50: 155 nM
  TGI: 684 nM
RXF 393 renal
  GI50: 353 nM
  TGI: 1300 nM
SF-268 CNS
  GI50: 890 nM
  TGI: 6360 nM
SF-295 CNS
  GI50: 1120 nM
  TGI: 3890 nM
SF-539 CNS
  GI50: 312 nM
  TGI: 1150 nM
SK-MEL-5 melanoma
  GI50: 1230 nM
  TGI: 2590 nM
SK-OV-3 ovarian
  GI50: 1470 nM
  TGI: 3030 nM
SN12C renal
  GI50: 351 nM
  TGI: 1560 nM
SNB-19 CNS
  GI50: 672 nM
  TGI: 10400 nM
SNB-75 CNS
  GI50: 1420 nM
  TGI: 4210 nM
SW-620 colon
  GI50: 406 nM
  TGI: 1870 nM
TK-10 renal
  GI50: 440 nM
  TGI: 2020 nM
U251 CNS
  GI50: 353 nM
  TGI: 1360 nM
UACC-257 melanoma
  GI50: 1520 nM
  TGI: 4260 nM
UACC-62 melanoma
  GI50: 426 nM
  TGI: 1940 nM
UO-31 renal
  GI50: 298 nM
  TGI: 1170 nM
